# Reference: paper PMC7554696 (International Journal of Molecular Sciences, 2020)
# Residues, ends and D or L forms follow the SMILES beside them. *: point of attachment. Doxorubicin(3'-N) = COc1cccc2c1C(=O)c1c(O)c3c(c(O)c1C2=O)C[C@@](O)(C(=O)CO)C[C@@H]3O[C@H]1C[C@H](N*)[C@H](O)[C@H](C)O1; Fmoc = O=C(OCC1c2ccccc2-c2ccccc21)*
# Columns and labels:
# [1] = tested on: dsDNA (DNA, duplex) CGTACGCGTACGCGTACGCG/CGCGTACGCGTACGCGTACG; assay: ITC (single set of identical sites); details: 10 mM Tris-HCl pH 7.2, 25 °C
# [2] = tested on: dsDNA (DNA, duplex) CGTACGCGTACGCGTACGCG/CGCGTACGCGTACGCGTACG; assay: UV-Vis absorbance titration (Benesi–Hildebrand, 480 nm); details: 10 mM Tris-HCl pH 7.2, 25 °C; 18 µM compound, no added salt stated
# [3] = tested on: dsDNA (DNA, duplex) CGTACGCGTACGCGTACGCG/CGCGTACGCGTACGCGTACG; assay: fluorescence quenching titration (Lineweaver–Burk, ex 490 nm, em 594 nm); details: 10 mM Tris-HCl pH 7.2, 25 °C; 1.94 µM compound; average of two experiments
# [4] = tested on: collagenase IV (containing MMP-2/-9); assay: Enzymatic cleavage of MMP-2/-9-cleavable octapeptide by collagenase IV (HPLC); assay type: in vitro ADME; details: 37 °C, APMA-activated 1 mM collagenase IV in HBSS, HPLC read-out
# Experimental: The MMP-2/-9-cleavable peptide was degraded by collagenase IV (containing MMP-2/-9) in a time-dependent manner. […] In order to investigate how fast the octapeptide cleaved, the aliquots were removed after 2, 8, and 12 h.
# The MMP-2/-9-cleavable octapeptide Fmoc–Gly–Pro–Leu–Gly–Leu–Ala–Gly–Gly was evaluated by enzymatic digestion with the use of collagenase IV (containing MMP-2/-9). In the first step, 1 mL of HBSS was added to […] of collagenase IV (205 u/mg) and mixed to complete dissolution. Activation of collagenase IV was performed using 1 mM APMA in 0.15 M NaOH for 1.5 h at 37 °C [24, 43]. The octapeptide stock solution was added to activated 1 mM collagenase IV and incubated at 37 °C. The aliquots were removed and analyzed by HPLC, between 2 and 12 h. The HPLC Dionex Ultimate 3000 (Waltham, MA, USA) was equipped with a bioZen Intact XB-C8 column (3.6 μm, 2.1 × 150 mm; Phenomenex, Aschaffenburg, Germany). The flow rate was set at 0.5 mL/min with a mobile phase consisting of solvent A (0.1% TFA) and solvent B (100% ACN). The gradient was as follows: 0–5 min, 0% of solvent B; 5–8 min, 0–30% of solvent B. The hydrolysis product was detected by MALDI TOF/TOF 5800 mass spectrometry (AB Sciex, Darmstadt, Germany).
# [5] = tested on: dsDNA (20 bp, 5′-CGTACGCGTACGCGTACGCG-3′ duplex); assay: UV-Vis spectrophotometric titration with dsDNA (Benesi–Hildebrand); assay type: binding; details: 10 mM Tris-HCl pH 7.2, 25 °C
# [6] = tested on: dsDNA (20 bp, 5′-CGTACGCGTACGCGTACGCG-3′ duplex); assay: Steady-state fluorescence quenching titration with dsDNA; assay type: binding; details: 10 mM Tris-HCl pH 7.2, 25 °C
# [7] = tested on: dsDNA; assay: Time-resolved fluorescence lifetime measurement; assay type: physicochemical; details: λex 420 nm, λem 594 nm, 20 °C, ligand 5 µM, constant regardless of dsDNA concentration (0–0.25 µM)
# [8] = tested on: dsDNA (20 bp, 5′-CGTACGCGTACGCGTACGCG-3′ duplex); assay: Isothermal titration calorimetry (ITC) with dsDNA; assay type: binding; details: 10 mM Tris-HCl pH 7.2, 25 °C
logKITC ([1]; 0.470 mM compound into 0.005 mM dsDNA),KA [2],KA [3],MMP-2/-9 cleaved product Fmoc–Gly–Pro–Leu–Gly detected (efficiency of enzymatic digestion) ([4]; 2 h incubation),MMP-2/-9 cleaved product Fmoc–Gly–Pro–Leu–Gly detected (efficiency of enzymatic digestion) ([4]; 8 h incubation),MMP-2/-9 cleaved product Fmoc–Gly–Pro–Leu–Gly detected (efficiency of enzymatic digestion) ([4]; 12 h incubation),substrate (octapeptide) observed after incubation with collagenase IV ([4]; 12 h incubation),free energy of binding ΔG = −RTlnKA ([5]; from spectrophotometric KA),"number of binding sites n (Scatchard, slope of log[(F0−F)/F] vs log[Q]) ([6]; fluorescence titration, ligands bound per dsDNA molecule)",fluorescence lifetime τ0 [7],logKITC ([1]; 0.174 mM compound into 0.002 mM dsDNA),SMILES,"intrinsic association constant KA (ligand…dsDNA), Benesi–Hildebrand ([5]; UV-Vis absorbance at 480 nm, ligand 18 µM, dsDNA up to 1.90 µM)","bimolecular quenching rate constant kq (Stern–Volmer) ([6]; fluorescence quenching by dsDNA, λex 490 nm, emission 594 nm, ligand 1.94 µM)",molar ratio of complex (ligand to dsDNA) from ITC ([8]; standard deviation in parentheses),"logKITC ([8]; ITC, single set of identical binding sites model, SD in parentheses)","ΔHITC ([8]; ITC, SD in parentheses)","TΔSITC ([8]; ITC, calculated from ΔGITC = ΔHITC − TΔSITC)","ΔGITC ([8]; ITC, ΔGITC = −RTlnKITC, SD in parentheses)"
4.24 (±0.09) log (unit not printed),540000 M⁻¹,5.6e+06 M⁻¹,,,,,,,,,COc1cccc2c1C(=O)c1c(O)c3c(c(O)c1C2=O)C[C@@](O)(C(=O)CO)C[C@@H]3O[C@H]1C[C@H](NC(=O)CNC(=O)CNC(=O)[C@H](C)NC(=O)[C@@H](N)CC(C)C)[C@H](O)[C@H](C)O1 (H-LAGG-{Doxorubicin(3'-N)}),,,,,,,
,,,52.54%,69.53%,82.42%,17.43%,,,,,CC(C)C[C@H](NC(=O)CNC(=O)[C@H](CC(C)C)NC(=O)[C@@H]1CCCN1C(=O)CNC(=O)OCC1c2ccccc2-c2ccccc21)C(=O)N[C@@H](C)C(=O)NCC(=O)NCC(=O)O [Fmoc–Gly–Pro–Leu–Gly–Leu–Ala–Gly–Gly] (Fmoc-GPLGLAGG-OH),,,,,,,
,1.1e+06 M⁻¹,1.1e+07 M⁻¹,,,,,-8.23 kcal/mol,approximately 1.0,1.057 ± 0.022 ns,6.03 (±0.04) log (unit not printed),"COc1cccc2c1C(=O)c1c(O)c3c(c(O)c1C2=O)C[C@@](O)(C(=O)CO)C[C@@H]3O[C@H]1C[C@H](N)[C@H](O)[C@H](C)O1 [DOX, Doxorubicin]",1.1e+06 M⁻¹,9.37e+15 M⁻¹ s⁻¹,7.29 (±0.09),6.03 (±0.04),−9.52 (±0.17) kcal/mol,-1.3 kcal/mol,−8.26 (±0.05) kcal/mol
